In brackets after ≈: the same amount, converted by molar mass. Read-outs that look alike come from different tables or passages of the source.
Columns and labels:
[1] = Solubility of micronized Compound 2 in McIlvain's citrate-phosphate buffer; type: physicochemical; conditions: aqueous buffer, thermodynamic from solid, citrate-phosphate buffer pH 2.2 to 8.64, 30 hours, read-out: Solubility of micronized formulation
Procedure: Solubility of a micronized formulation of Compound 2 was further evaluated using McIlvain's citrate-phosphate buffer recipes (0.2M Na2HPO4 and 0.1M citric acid) from pH 2.2 to 8.64. Samples were agitated for 30 hours and sampled, centrifuged, and analyzed by UPLC.

[2] = Solubility in fasted-state simulated intestinal fluid (FaSSIF); type: physicochemical; conditions: thermodynamic from solid, pH 6.5, 25° C., read-out: Solubility in the FaSSIF model
Procedure: Solubility was also determined in a fasted-state simulated intestinal fluid (FaSSIF) assay. Briefly, Compound 2 was added to the FaSSIF medium (bile salts, NaOH (0.420 g), NaH2PO4 (3.438 g), NaCl (6.186 g), pH to 6.5, at 25° C., and brought to a 1 L volume) agitated for 30 hours and sampled, centrifuged, and analyzed by UPLC. Solubility in the FaSSIF model was determined to be 1.19 mg/ml.

[3] = Plasma protein binding, equilibrium dialysis; type: in vitro ADME; conditions: pooled K2EDTA plasma, read-out: Mean % Bound ± SD (converted)
Procedure: With this method, free compound is separated from protein-bound compound by dialysis across a semi-permeable membrane.
The protein binding was tested at a concentration of 1 μM. Pooled human, cynomolgus monkey, dog, and rat K2EDTA plasma was thawed and centrifuged at 2000×g for 10 minutes at 4° C. to remove particulates; any lipid on the top of the supernatant was also removed by aspiration. The plasma was warmed to 37° C. for 10 minutes before use. Test compounds were spiked into 2 ml plasma in a polypropylene plate to a final concentration of 1 μM. Triplicate 400 μl aliquots of spiked plasma were transferred into the Thermo RED dialysis units and dialyzed against 600 μl of PBS buffer. […] After 6 hours dialysis, triplicate 50 μl aliquots were removed from the RED plate, matrix-matched with either PBS buffer or blank plasma, as appropriate, and quenched with 4 volumes of ACN containing an internal standard. The extracted samples were then centrifuged at 2000×g for 5 minutes at 4° C. The supernatant (50 μl) was removed and diluted with 100 μl water prior to LC/MS/MS bioanalysis.

mTRPA1 = target: T1, mTRPA1 (Mus musculus, UniProt Q8BLA8); experiment: TRPA1 IC50, whole-cell patch clamp; type: cell-based; conditions: mTRPA1, 10 μM AITC; read-out: IC50 Inward current
T1 construct: expressed in transfected cells
T1 sequence (Q8BLA8 whole entry): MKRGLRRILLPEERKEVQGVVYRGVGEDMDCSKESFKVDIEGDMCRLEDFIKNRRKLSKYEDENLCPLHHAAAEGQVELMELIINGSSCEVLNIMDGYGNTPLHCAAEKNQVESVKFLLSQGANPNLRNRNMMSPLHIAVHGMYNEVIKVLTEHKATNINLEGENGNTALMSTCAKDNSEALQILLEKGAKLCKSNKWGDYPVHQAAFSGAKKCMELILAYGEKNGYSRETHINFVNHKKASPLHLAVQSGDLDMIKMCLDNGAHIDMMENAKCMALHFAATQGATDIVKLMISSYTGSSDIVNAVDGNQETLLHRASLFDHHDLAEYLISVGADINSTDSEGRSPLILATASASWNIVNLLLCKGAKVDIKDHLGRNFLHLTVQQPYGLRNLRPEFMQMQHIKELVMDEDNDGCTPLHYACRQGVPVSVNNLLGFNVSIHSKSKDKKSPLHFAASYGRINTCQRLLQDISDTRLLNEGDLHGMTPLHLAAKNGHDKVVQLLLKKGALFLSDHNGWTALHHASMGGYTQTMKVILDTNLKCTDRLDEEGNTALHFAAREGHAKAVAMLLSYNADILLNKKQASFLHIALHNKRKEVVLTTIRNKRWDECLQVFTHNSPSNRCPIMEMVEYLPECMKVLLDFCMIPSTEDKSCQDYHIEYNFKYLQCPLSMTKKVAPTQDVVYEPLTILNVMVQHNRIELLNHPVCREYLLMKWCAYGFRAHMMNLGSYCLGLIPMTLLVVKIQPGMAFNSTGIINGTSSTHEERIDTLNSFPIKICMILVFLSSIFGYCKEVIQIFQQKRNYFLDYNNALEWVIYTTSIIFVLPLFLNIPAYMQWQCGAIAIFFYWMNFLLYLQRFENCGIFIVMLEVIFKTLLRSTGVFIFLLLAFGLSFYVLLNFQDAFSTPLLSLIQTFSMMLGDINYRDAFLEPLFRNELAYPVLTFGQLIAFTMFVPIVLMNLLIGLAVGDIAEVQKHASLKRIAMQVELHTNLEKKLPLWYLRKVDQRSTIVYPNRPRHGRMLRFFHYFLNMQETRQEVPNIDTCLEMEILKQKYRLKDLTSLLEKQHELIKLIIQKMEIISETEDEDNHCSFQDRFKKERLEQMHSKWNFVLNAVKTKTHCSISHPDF

sheepTRPA1 = sheepTRPA1 (Ovis aries, UniProt A0ACI6QTQ3); experiment: TRPA1 IC50, whole-cell patch clamp; type: cell-based, Sheep; conditions: sheepTRPA1, 20 μM AITC; read-out: IC50 Inward current
Sequence of sheepTRPA1 (A0ACI6QTQ3 entry or part of it): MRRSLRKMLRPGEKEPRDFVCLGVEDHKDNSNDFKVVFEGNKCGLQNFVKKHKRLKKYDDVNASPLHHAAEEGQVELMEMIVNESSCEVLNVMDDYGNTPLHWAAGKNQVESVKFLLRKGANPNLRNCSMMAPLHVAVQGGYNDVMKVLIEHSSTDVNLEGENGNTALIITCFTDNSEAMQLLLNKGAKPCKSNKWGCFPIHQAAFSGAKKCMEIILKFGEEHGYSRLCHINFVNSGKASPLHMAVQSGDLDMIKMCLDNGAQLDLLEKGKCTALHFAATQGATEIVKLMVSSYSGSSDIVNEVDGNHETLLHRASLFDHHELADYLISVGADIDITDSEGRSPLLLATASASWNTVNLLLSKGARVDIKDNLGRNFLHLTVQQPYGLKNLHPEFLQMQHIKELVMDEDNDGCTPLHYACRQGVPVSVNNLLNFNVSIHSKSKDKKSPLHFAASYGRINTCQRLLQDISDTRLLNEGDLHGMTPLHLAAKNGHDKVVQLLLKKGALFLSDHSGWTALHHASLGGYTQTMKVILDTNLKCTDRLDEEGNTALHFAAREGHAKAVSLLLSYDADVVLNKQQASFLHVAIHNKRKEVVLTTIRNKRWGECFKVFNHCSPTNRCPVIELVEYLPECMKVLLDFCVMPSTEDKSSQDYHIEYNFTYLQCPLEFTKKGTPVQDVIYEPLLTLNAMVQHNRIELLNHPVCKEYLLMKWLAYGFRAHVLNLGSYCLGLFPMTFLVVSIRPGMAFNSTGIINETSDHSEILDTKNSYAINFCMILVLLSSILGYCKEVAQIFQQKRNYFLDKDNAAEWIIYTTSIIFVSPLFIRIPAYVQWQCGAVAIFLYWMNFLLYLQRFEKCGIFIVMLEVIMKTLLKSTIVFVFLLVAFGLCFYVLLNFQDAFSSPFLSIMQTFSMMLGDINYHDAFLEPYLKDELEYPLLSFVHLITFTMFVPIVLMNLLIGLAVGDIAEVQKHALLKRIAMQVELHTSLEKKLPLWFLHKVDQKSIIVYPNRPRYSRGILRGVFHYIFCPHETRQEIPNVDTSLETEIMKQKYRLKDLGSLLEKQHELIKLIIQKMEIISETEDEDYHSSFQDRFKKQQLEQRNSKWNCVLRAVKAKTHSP

[4] = test system: CFA-induced cold hyperalgesia model in the rat; experiment: CFA-induced cold hypersensitivity, paw withdrawal latency; type: in vivo; conditions: for Pre-RX PWL / Pre-Rx PWL: before dosing
Procedure: Embodiments of the invention may be efficacious in the treatment of inflammatory pain. Compound 2 tested by the CFA-induced pain test method. […]
Briefly, the hind paw is sensitized to cold temperature (allodynic), by administering 0.1 mL of Complete Freund's Adjuvant (CFA) is administered to the right hind paw. Three days later, the time taken for the animal to lift its CFA-injected paw is recorded compared to its un-injected normal left hind paw. […] To avoid tissue damage the maximum cut-off time is 5 minutes. Animals that are allodynic (average PWL to the first three pain behaviors <150 seconds for the CFA-injected hind paw: ˜≧50% difference between the normal and CFA-injected paw) are included in the study and subsequently randomized across treatment groups. The following day, the animals are dosed under blinded conditions. Following the 1-2 hour pre-treatment time, the post-dose PWL readings are again taken. The efficacy of the drug treatment is assessed by comparing the PWL in the drug treatment animals to those animals that receive the vehicle.
Compound 4 was also tested using the methods disclosed.
In a further study, compounds of the invention were tested for efficacy at low doses for the treatment of inflammatory pain. Using the methods disclosed in above, Compound 2 was dosed at ranges of 0.1 to 1 mg/kg PO. The positive comparator TRPA1 antagonist Compound A was also tested at a dose of 150 mg/kg IP. […] Oral drug delivery was accomplished using a 20-gauge 1½″ oral gavage needle and a 5 cc syringe. Fed rats received a single oral gavage of Compound 2 at 0.03, 0.1, 0.3, or 1 mg/kg or Vehicle, 2 hours prior to testing

CYP3A4 = CYP3A4 (Homo sapiens, UniProt P08684); experiment: CYP450 inhibition at 10 μM; type: biochemical
Sequence of CYP3A4 (P08684 whole entry): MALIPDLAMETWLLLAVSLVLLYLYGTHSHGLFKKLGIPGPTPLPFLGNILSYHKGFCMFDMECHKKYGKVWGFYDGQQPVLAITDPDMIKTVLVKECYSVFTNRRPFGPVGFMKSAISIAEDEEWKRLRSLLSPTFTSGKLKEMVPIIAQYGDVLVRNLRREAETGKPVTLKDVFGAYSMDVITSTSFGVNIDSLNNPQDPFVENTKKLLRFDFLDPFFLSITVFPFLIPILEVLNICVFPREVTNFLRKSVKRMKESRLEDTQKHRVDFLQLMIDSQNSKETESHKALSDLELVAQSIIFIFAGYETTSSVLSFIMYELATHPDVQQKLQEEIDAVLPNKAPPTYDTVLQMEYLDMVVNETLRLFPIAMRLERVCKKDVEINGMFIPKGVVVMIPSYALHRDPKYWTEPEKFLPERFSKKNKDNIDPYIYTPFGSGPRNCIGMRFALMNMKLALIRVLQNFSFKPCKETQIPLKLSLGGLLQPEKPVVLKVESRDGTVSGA

[5] = CYP450 reaction phenotyping in human liver microsomes; type: in vitro ADME; conditions: human liver microsomes with and without selective CYP450 inhibitors
Procedure: CYP450 reaction phenotyping of Compound 2 was conducted by incubating the test article with human liver microsomes in the presence and absence of selective CYP450 inhibitors.

CYP2B6 = CYP2B6 (Homo sapiens, UniProt P20813); experiment: in vitro; conditions: probe Buproprion
Sequence of CYP2B6 (P20813 whole entry): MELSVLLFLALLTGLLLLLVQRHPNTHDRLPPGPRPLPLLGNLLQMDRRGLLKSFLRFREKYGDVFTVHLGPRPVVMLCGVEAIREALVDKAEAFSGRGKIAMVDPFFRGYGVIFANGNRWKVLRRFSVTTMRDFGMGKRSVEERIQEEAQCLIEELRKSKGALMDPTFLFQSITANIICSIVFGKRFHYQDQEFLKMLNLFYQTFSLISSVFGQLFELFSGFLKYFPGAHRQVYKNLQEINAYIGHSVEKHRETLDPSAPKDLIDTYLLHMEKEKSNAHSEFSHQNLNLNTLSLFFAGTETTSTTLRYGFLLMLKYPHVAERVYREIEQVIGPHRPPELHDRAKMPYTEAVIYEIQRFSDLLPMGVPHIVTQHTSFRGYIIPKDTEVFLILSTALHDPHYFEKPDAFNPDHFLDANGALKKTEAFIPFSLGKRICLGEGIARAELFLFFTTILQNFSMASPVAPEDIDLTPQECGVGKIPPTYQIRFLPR

[6] = 1 mg/kg PO, suspension in 0.5% methylcellulose

SMILES: C[C@@H](C(=O)Nc1ccnc(-c2cnc(N3CCC[C@H]3C(F)(F)F)nc2)n1)n1cnc2c1c(=O)n(C)c(=O)n2C [Compound 2, (S)-2-(1,3-dimethyl-2,6-dioxo-2,3-dihydro-1H-purin-7(6H)-yl)-N-(2′-((S)-2-(trifluoromethyl)pyrrolidin-1-yl)-[2,5′-bipyrimidin]-4-yl)propanamide]
- solubility at 30 h [1]: 200 to 1300 µg/mL (≈ 367 to 2390 µM)
- solubility at 30 h [2]: 1190 µg/mL (≈ 2190 µM)
- fraction unbound at 6 h, 1 μM ([3]; Human plasma): 0.015
- fraction unbound at 6 h, 1 μM ([3]; Sprague dawley rat plasma): 0.047
- IC50 (mTRPA1): 26.6 ± 3.3 nM
- IC50 (sheepTRPA1): 3280 ± 640 nM
- reversal of CFA-induced cold hypersensitivity ([4]; 0.03 mg/kg PO): did not exert a statistically significant effect
- PWL Change ([4]; 0.03 mpk PO, 2 hours prior to testing): 14.8 s
- reversal of CFA-induced cold hypersensitivity ([4]; 0.1, 0.3, and 1 mg/kg PO): significant reversal of CFA-induced cold hypersensitivity
- PWL Change ([4]; 0.1 mpk PO, 2 hours prior to testing): 43.1 s
- Post RX PWL ([4]; 0.3 mpk PO): 197.7 s
- Pre-RX PWL ([4]; 0.3 mpk PO group): 104.0 s
- PWL Change ([4]; 0.3 mpk PO, 2 hours prior to testing): 74.1 s
- Post RX PWL ([4]; 1 mpk PO): 243.0 s
- Pre-RX PWL ([4]; 1 mpk PO group): 103.7 s
- PWL Change ([4]; 1 mpk PO, 2 hours prior to testing): 104.8 s
- Post RX PWL ([4]; 3 mpk PO): 249.6 s
- Pre-RX PWL ([4]; 3 mpk PO group): 103.9 s
- Post RX PWL ([4]; 10 mpk PO): 237.3 s
- Pre-RX PWL ([4]; 10 mpk PO group): 104.0 s
- effect on cold hypersensitivity ([4]; oral doses of 0.3 to 10 mg/kg): attenuated cold hypersensitivity
- inhibition at 10 µM (CYP3A4; probe Midazolam, 3A4, substrate Midazolam): 0%
- inhibition at 10 µM (CYP3A4; probe Testosterone, 3A4, substrate Testosterone): 2.8%
- CYP450 isozymes involved in in vitro metabolism [5]: involved mainly the CYP3A4 isozymes
- inhibition at 10 µM (CYP2B6): 15.1%

SMILES: C[C@@H](C(=O)Nc1ccnc(-c2cnc(N3CCC[C@@H]3C(F)(F)F)nc2)n1)n1cnc2c1c(=O)n(C)c(=O)n2C [Compound 4, (S)-2-(1,3-dimethyl-2,6-dioxo-2,3-dihydro-1H-purin-7(6H)-yl)-N-(2′-((R)-2-(trifluoromethyl)pyrrolidin-1-yl)-[2,5′-bipyrimidin]-4-yl)propanamide]
- Pre-Rx PWL ([4]; 1 mg/kg PO group, suspension in 0.5% methylcellulose): 101.7 s
- PWL Change [4, 6]: 148.6 s
- Post-Rx PWL [4, 6]: 250.3 s
- Pre-Rx PWL ([4]; 3 mg/kg PO group, suspension): 101.1 s
- PWL Change ([4]; 3 mg/kg PO, suspension): 140.9 s
- Post-Rx PWL ([4]; 3 mg/kg PO, suspension): 242.1 s
- Pre-Rx PWL ([4]; 10 mg/kg PO group, suspension): 101.5 s
- PWL Change ([4]; 10 mg/kg PO, suspension): 132.6 s
- Post-Rx PWL ([4]; 10 mg/kg PO, suspension): 234.1 s
